Common to all, as to assay type: biochemical
For one assay, the target named is T1, PI3Kβ (Homo sapiens, UniProt P42338).
T1 construct: made in house
As to the kind of experiment: TR-FRET enzymatic activity assay, PI3Kβ. As to conditions: Table 2a; same assay.

The target of another assay is T2, PI3Kδ (Homo sapiens, UniProt O00329).
T2 construct: made in house
As to the kind of experiment: TR-FRET enzymatic activity assay, PI3Kδ. As to conditions: Table 2a; same assay. For orientation: In TR-FRET formats the signal depends on donor and acceptor labels being close together.

In the next assay the target is T3, PI3Kγ (Homo sapiens, UniProt P48736).
T3 construct: made in house
T3 sequence (P48736 whole entry): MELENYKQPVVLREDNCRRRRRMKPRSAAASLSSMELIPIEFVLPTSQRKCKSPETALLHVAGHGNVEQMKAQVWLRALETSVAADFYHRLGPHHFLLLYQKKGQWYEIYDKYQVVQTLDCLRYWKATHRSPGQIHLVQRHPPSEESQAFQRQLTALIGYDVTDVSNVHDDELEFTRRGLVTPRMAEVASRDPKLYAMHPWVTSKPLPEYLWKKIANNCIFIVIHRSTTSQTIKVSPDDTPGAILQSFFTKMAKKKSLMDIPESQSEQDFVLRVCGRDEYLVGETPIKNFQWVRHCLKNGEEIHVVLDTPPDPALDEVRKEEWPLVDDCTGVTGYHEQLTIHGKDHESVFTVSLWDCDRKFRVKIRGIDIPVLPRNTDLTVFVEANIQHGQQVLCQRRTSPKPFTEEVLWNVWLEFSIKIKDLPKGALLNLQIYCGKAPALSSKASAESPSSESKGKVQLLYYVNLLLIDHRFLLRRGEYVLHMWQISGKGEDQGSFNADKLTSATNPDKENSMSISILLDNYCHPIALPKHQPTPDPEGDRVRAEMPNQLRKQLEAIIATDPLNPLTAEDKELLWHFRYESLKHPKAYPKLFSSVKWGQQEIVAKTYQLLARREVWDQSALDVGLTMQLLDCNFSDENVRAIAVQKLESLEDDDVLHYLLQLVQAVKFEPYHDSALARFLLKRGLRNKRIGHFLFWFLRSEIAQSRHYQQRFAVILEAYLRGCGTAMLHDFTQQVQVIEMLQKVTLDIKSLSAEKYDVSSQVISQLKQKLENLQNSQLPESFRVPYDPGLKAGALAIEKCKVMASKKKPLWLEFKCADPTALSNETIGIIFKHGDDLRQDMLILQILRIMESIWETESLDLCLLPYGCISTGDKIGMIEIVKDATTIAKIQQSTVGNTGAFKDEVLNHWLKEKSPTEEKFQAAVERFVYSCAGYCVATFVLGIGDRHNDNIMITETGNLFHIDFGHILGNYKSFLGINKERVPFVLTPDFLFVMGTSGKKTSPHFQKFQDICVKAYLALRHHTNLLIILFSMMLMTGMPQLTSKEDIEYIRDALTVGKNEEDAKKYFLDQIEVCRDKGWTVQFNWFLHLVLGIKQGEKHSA
As to the kind of experiment: TR-FRET enzymatic activity assay, PI3Kγ. As to conditions: Table 2a; same assay; read-out: PI3Kγ IC50. Put shortly:
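Activity measured by time-resolved FRET; each isoform tested in its own enzymatic reaction.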

T1 sequence (P42338 whole entry): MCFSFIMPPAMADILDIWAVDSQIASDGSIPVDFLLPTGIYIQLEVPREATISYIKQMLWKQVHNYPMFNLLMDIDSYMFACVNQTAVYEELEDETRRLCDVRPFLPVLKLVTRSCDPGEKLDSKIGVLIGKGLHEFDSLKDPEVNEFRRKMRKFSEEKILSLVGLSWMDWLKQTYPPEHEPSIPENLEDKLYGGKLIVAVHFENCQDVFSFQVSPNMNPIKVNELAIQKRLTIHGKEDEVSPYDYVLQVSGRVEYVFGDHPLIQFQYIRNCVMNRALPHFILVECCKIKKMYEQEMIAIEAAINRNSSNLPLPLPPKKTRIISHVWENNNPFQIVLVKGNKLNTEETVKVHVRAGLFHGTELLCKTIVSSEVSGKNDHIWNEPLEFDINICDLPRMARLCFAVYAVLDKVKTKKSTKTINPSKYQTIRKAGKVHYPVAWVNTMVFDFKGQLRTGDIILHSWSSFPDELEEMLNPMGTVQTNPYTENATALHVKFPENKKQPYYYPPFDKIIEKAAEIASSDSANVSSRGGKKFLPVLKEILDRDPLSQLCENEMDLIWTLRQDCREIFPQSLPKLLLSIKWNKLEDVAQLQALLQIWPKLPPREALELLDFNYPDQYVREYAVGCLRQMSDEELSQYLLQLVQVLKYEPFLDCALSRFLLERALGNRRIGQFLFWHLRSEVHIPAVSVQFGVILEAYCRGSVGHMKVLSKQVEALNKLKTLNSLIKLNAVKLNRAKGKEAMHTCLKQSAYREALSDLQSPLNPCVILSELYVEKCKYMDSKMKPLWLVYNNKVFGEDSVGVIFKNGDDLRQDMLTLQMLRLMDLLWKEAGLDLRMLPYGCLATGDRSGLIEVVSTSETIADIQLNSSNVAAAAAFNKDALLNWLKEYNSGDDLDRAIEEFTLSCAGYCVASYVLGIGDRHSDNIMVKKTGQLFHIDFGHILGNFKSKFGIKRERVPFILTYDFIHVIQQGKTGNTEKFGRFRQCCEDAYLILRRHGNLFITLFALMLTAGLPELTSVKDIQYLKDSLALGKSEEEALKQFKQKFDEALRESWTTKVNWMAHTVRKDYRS
T1 sequence (P27986 whole entry partner): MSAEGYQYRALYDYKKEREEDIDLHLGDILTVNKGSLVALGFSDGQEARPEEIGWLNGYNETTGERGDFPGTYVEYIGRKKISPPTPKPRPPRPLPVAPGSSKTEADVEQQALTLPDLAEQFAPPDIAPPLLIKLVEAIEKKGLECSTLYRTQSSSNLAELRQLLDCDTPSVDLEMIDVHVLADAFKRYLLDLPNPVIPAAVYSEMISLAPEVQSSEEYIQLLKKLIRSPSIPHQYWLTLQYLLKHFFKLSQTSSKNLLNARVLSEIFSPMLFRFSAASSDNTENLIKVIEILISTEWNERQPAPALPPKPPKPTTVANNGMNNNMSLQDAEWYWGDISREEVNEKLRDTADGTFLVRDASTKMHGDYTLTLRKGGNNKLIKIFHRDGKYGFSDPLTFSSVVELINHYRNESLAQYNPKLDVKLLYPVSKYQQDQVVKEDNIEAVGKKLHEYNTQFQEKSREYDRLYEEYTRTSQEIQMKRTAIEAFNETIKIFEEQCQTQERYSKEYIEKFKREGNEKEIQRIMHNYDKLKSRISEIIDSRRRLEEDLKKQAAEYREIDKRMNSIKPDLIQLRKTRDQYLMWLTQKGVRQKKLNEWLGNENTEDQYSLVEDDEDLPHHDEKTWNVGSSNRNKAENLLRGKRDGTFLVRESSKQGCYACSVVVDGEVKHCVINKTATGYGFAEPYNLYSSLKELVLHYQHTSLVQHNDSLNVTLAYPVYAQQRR
T2 sequence (O00329 whole entry): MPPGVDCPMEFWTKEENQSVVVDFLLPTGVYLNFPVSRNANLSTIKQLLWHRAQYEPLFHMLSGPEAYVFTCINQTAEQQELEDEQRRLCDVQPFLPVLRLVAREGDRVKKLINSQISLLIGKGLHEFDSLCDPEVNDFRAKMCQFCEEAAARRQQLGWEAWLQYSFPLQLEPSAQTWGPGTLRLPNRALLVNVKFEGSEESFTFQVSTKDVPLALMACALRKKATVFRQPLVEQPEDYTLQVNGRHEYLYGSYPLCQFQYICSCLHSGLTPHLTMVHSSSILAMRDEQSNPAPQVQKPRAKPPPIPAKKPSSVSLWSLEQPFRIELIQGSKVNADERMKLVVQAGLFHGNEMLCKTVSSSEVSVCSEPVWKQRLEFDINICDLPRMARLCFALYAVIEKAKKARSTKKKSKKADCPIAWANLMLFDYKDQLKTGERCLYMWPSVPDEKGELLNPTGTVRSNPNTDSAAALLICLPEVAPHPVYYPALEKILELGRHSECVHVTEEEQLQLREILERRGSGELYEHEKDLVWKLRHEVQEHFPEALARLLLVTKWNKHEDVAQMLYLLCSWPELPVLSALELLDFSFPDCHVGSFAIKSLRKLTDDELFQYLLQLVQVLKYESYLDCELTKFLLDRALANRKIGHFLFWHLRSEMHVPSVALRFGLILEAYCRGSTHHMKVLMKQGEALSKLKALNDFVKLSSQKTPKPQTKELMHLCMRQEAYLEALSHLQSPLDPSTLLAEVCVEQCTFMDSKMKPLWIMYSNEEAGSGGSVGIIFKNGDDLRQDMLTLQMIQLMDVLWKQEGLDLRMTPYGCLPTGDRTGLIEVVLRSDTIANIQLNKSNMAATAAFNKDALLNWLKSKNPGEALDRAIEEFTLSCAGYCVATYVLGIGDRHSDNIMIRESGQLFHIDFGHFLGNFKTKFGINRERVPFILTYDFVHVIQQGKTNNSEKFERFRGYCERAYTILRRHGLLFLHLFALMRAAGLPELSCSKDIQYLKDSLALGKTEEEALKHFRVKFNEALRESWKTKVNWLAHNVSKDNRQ
T2 sequence (P27986 whole entry partner): as the sequence (P27986 whole entry partner) above

As a reminder, the IC50 is the concentration needed to halve the response being measured. With `Nc1nc(N)c(Cl)c(N[C@H](c2nc3cccc(C(F)F)c3c(=O)n2-c2cc[nH]n2)C2CC2)n1` [Compound 215, (S)-2-(cyclopropyl((2,6-diamino-5-chloropyrimidin-4-yl)amino)methyl)-5-(difluoromethyl)-3-(1H-pyrazol-3-yl)quinazolin-4(3H)-one], the IC50 against PI3Kβ came out at 0.01 µM; against PI3Kδ, 0.006 µM; on PI3Kγ, 2.7 µM.
As for `Cc1n[nH]cc1-n1c([C@H](C)Nc2nc(N)nc(N)c2C#N)nc2cccc(Cl)c2c1=O` [Compound 216, (S)-2,4-diamino-6-((1-(5-chloro-3-(3-methyl-1H-pyrazol-4-yl)-4-oxo-3,4-dihydroquinazolin-2-yl)ethyl)amino)pyrimidine-5-carbonitrile], the IC50 against PI3Kβ is 0.003 µM; on PI3Kδ, 0.0004 µM; at PI3Kγ, 0.04 µM.
Turning to `C[C@H](Nc1nc(N)nc(N)c1C#N)c1nc2c(Cl)ccc(Cl)c2c(=O)n1-c1cn[nH]c1` [Compound 217, (S)-2,4-diamino-6-((1-(5,8-dichloro-4-oxo-3-(1H-pyrazol-4-yl)-3,4-dihydroquinazolin-2-yl)ethyl)amino)pyrimidine-5-carbonitrile], the IC50 at PI3Kβ amounted to 0.0006 µM; against PI3Kδ it was 0.0002 µM; on PI3Kγ, 0.083 µM.
Take `Cc1n[nH]cc1-n1c([C@H](C)Nc2nc(N)nc(N)c2Cl)nc2c(Cl)ccc(Cl)c2c1=O` [Compound 218, (S)-5,8-dichloro-2-(1-((2,6-diamino-5-chloropyrimidin-4-yl)amino)ethyl)-3-(3-methyl-1H-pyrazol-4-yl)quinazolin-4(3H)-one]: the values for the IC50 against PI3Kβ, against PI3Kδ and at PI3Kγ were 0.21 µM, 0.02 µM and over 10 µM, respectively.
For the molecule `Cc1n[nH]cc1-n1c([C@H](C)Nc2nc(N)nc(N)c2C#N)nc2c(Cl)ccc(Cl)c2c1=O` [Compound 219, (S)-2,4-diamino-6-((1-(5,8-dichloro-3-(3-methyl-1H-pyrazol-4-yl)-4-oxo-3,4-dihydroquinazolin-2-yl)ethyl)amino)pyrimidine-5-carbonitrile], the IC50 against PI3Kβ was 0.006 µM; on PI3Kδ it was 0.001 µM; at PI3Kγ, 0.42 µM.
Regarding `Cc1n[nH]cc1-n1c([C@@H](Nc2nc(N)nc(N)c2C#N)C2CC2)nc2c(Cl)cc(F)cc2c1=O` [Compound 220, (S)-2,4-diamino-6-(((8-chloro-6-fluoro-3-(3-methyl-1H-pyrazol-4-yl)-4-oxo-3,4-dihydroquinazolin-2-yl)(cyclopropyl)methyl)amino)pyrimidine-5-carbonitrile], the concentration for half-maximal inhibition (IC50) turned out to be 0.042 µM against PI3Kβ, 0.007 µM against PI3Kδ and 2.2 µM at PI3Kγ.
Turning to `Cc1n[nH]cc1-n1c([C@@H](Nc2nc(N)nc(N)c2Cl)C2CC2)nc2c(Cl)cc(F)cc2c1=O` [Compound 221, (S)-8-chloro-2-(cyclopropyl((2,6-diamino-5-chloropyrimidin-4-yl)amino)methyl)-6-fluoro-3-(3-methyl-1H-pyrazol-4-yl)quinazolin-4(3H)-one], the IC50 against PI3Kβ is 1.1 µM; against PI3Kδ, 0.18 µM; at PI3Kγ it was over 10 µM.
In the same order, the values of `Cc1ccc(Cl)c2nc([C@H](C)Nc3nc(N)nc(N)c3C#N)n(-c3cc[nH]n3)c(=O)c12` [Compound 222, (S)-2,4-diamino-6-((1-(8-chloro-5-methyl-4-oxo-3-(1H-pyrazol-3-yl)-3,4-dihydroquinazolin-2-yl)ethyl)amino)pyrimidine-5-carbonitrile] are 0.0006 µM, 0.0002 µM and 0.36 µM.
For `Cc1ccc(Cl)c2nc([C@H](C)Nc3nc(N)nc(N)c3Cl)n(-c3cc[nH]n3)c(=O)c12` [Compound 223, (S)-8-chloro-2-(1-((2,6-diamino-5-chloropyrimidin-4-yl)amino)ethyl)-5-methyl-3-(1H-pyrazol-3-yl)quinazolin-4(3H)-one], the values for the IC50 at PI3Kβ, at PI3Kδ and at PI3Kγ were 0.003 µM, 0.003 µM and 9.4 µM, respectively.
Turning to `Cc1ccc(Cl)c2nc([C@H](C)Nc3nc(N)nc(C(F)F)c3C#N)n(-c3cc[nH]n3)c(=O)c12` [Compound 224, (S)-2-amino-4-((1-(8-chloro-5-methyl-4-oxo-3-(1H-pyrazol-3-yl)-3,4-dihydroquinazolin-2-yl)ethyl)amino)-6-(difluoromethyl)pyrimidine-5-carbonitrile], the IC50 against PI3Kβ was determined as 0.005 µM; on PI3Kδ it was 0.002 µM; at PI3Kγ it was 2.1 µM.
In the same order, the values of `C[C@H](Nc1nc(N)nc(C(F)F)c1Cl)c1nc2cccc(Cl)c2c(=O)n1-c1cc[nH]n1` [Compound 225, (S)-2-(1-((2-amino-5-chloro-6-(difluoromethyl)pyrimidin-4-yl)amino)ethyl)-5-chloro-3-(1H-pyrazol-3-yl)quinazolin-4(3H)-one] are 0.537 µM, 0.3 µM and over 10 µM.
As for `C[C@H](Nc1nc(N)nc(C(F)F)c1Cl)c1nc2c(Cl)cc(F)cc2c(=O)n1-c1cc[nH]n1` [Compound 226, (S)-2-(1-((2-amino-5-chloro-6-(difluoromethyl)pyrimidin-4-yl)amino)ethyl)-8-chloro-6-fluoro-3-(1H-pyrazol-3-yl)quinazolin-4(3H)-one], the IC50 is 0.628 µM at PI3Kβ, 0.27 µM against PI3Kδ and over 10 µM on PI3Kγ.
For `C[C@H](Nc1nc(N)nc(N)c1Cl)c1nc2c(Cl)ccc(C(F)F)c2c(=O)n1-c1cc[nH]n1` [Compound 227, (S)-8-chloro-2-(1-((2,6-diamino-5-chloropyrimidin-4-yl)amino)ethyl)-5-(difluoromethyl)-3-(1H-pyrazol-3-yl)quinazolin-4(3H)-one], the IC50 against PI3Kβ is 0.009 µM; at PI3Kδ, 0.008 µM; on PI3Kγ, 5 µM.
On the same counts, the results for `C[C@H](Nc1nc(N)nc(N)c1C#N)c1nc2c(Cl)ccc(C(F)F)c2c(=O)n1-c1cc[nH]n1` [Compound 228, (S)-2,4-diamino-6-((1-(8-chloro-5-(difluoromethyl)-4-oxo-3-(1H-pyrazol-3-yl)-3,4-dihydroquinazolin-2-yl)ethyl)amino)pyrimidine-5-carbonitrile] are 0.001 µM, 0.0006 µM and 0.87 µM.
In the same order, the values of `C[C@H](Nc1nc(N)nc(N)c1Cl)c1nc2ccc(Cl)c(C(F)F)c2c(=O)n1-c1cc[nH]n1` [Compound 229, (S)-6-chloro-2-(1-((2,6-diamino-5-chloropyrimidin-4-yl)amino)ethyl)-5-(difluoromethyl)-3-(1H-pyrazol-3-yl)quinazolin-4(3H)-one] are 0.085 µM, 0.049 µM and 5 µM.
On the same counts, the results for `C[C@H](Nc1nc(N)nc(N)c1C#N)c1nc2ccc(Cl)c(C(F)F)c2c(=O)n1-c1cc[nH]n1` [Compound 230, (S)-2,4-diamino-6-((1-(6-chloro-5-(difluoromethyl)-4-oxo-3-(1H-pyrazol-3-yl)-3,4-dihydroquinazolin-2-yl)ethyl)amino)pyrimidine-5-carbonitrile] are 0.007 µM, 0.006 µM and 1.8 µM.
On to `C[C@H](Nc1nc(N)nc(N)c1C#N)c1nc2c(F)c(F)ccc2c(=O)n1-c1cc[nH]n1` [Compound 231, (S)-2,4-diamino-6-((1-(7,8-difluoro-4-oxo-3-(1H-pyrazol-3-yl)-3,4-dihydroquinazolin-2-yl)ethyl)amino)pyrimidine-5-carbonitrile], for which the IC50 was 0.013 µM on PI3Kβ, 0.012 µM against PI3Kδ and 6.1 µM on PI3Kγ.
In the same order, the values of `C[C@H](Nc1nc(N)nc(N)c1Cl)c1nc2c(F)c(F)ccc2c(=O)n1-c1cc[nH]n1` [Compound 232, (S)-2-(1-((2,6-diamino-5-chloropyrimidin-4-yl)amino)ethyl)-7,8-difluoro-3-(1H-pyrazol-3-yl)quinazolin-4(3H)-one] are 0.26 µM, 0.19 µM and over 10 µM.
In the same order, the values of `C[C@H](Nc1nc(N)nc(N)c1C#N)c1nc2cc(F)cc(F)c2c(=O)n1-c1cc[nH]n1` [Compound 235, (S)-2,4-diamino-6-((1-(5,7-difluoro-4-oxo-3-(1H-pyrazol-3-yl)-3,4-dihydroquinazolin-2-yl)ethyl)amino)pyrimidine-5-carbonitrile] are 0.011 µM, 0.012 µM and 9.6 µM.
On the same counts, the results for `C[C@H](Nc1nc(N)nc(N)c1Cl)c1nc2cc(F)cc(F)c2c(=O)n1-c1cc[nH]n1` [Compound 236, (S)-2-(1-((2,6-diamino-5-chloropyrimidin-4-yl)amino)ethyl)-5,7-difluoro-3-(1H-pyrazol-3-yl)quinazolin-4(3H)-one] are 0.12 µM, 0.12 µM and over 10 µM.
Take `C[C@H](Nc1nc(N)nc(N)c1C#N)c1nc2cc(F)cc(Cl)c2c(=O)n1-c1cc[nH]n1` [Compound 237, (S)-2,4-diamino-6-((1-(5-chloro-7-fluoro-4-oxo-3-(1H-pyrazol-3-yl)-3,4-dihydroquinazolin-2-yl)ethyl)amino)pyrimidine-5-carbonitrile]: the IC50 against PI3Kβ came out at 0.002 µM; against PI3Kδ it was 0.002 µM; at PI3Kγ it was 1.4 µM.
On to `C[C@H](Nc1nc(N)nc(N)c1Cl)c1nc2cc(F)cc(Cl)c2c(=O)n1-c1cc[nH]n1` [Compound 238, (S)-5-chloro-2-(1-((2,6-diamino-5-chloropyrimidin-4-yl)amino)ethyl)-7-fluoro-3-(1H-pyrazol-3-yl)quinazolin-4(3H)-one], for which the IC50 on PI3Kβ was 0.021 µM; on PI3Kδ it was 0.015 µM; on PI3Kγ, over 10 µM.
For the molecule `N#Cc1c(N)nc(N)nc1N[C@H](c1nc2cc(F)cc(Cl)c2c(=O)n1-c1cc[nH]n1)C1CC1` [Compound 239, (S)-2,4-diamino-6-(((5-chloro-7-fluoro-4-oxo-3-(1H-pyrazol-3-yl)-3,4-dihydroquinazolin-2-yl)(cyclopropyl)methyl)amino)pyrimidine-5-carbonitrile], the IC50 at PI3Kβ came to 0.003 µM; at PI3Kδ it was 0.004 µM; at PI3Kγ, 2.7 µM.
